pIC50: −log10 of the molar value.
Key:
[1] = Plasma clearance in rat; type: ADME, organism-based
[2] = Oral bioavailability in rat; type: ADME, organism-based; settings: in vivo
[3] = Half life in rhesus monkey, iv; type: ADME, organism-based, Macaca mulatta; settings: in vivo
[4] = Volume of distribution in rhesus monkey; type: ADME, organism-based, Macaca mulatta; settings: in vivo, read-out: Vdss
[5] = Oral bioavailability in rhesus monkey; type: ADME, organism-based, Macaca mulatta; settings: in vivo
[6] = Plasma clearance in rhesus monkey; type: ADME, organism-based, Macaca mulatta
[7] = biological target: T1, Mitogen-activated protein kinase 14 (Homo sapiens, UniProt Q16539); test: Inhibition of P38 alpha MAPK
[8] = biological target: T1, Mitogen-activated protein kinase 14; test: Inhibition of TNF alpha release in THP1 cells; type: functional, cell-based, THP-1
[9] = biological target: T1, Mitogen-activated protein kinase 14; test: Inhibition of LPS stimulated TNF alpha release in whole blood; type: functional, tissue-based
[10] = Volume of distribution in rat; type: ADME, organism-based; settings: in vivo, read-out: Vdss
[11] = Half life in rat, iv; type: ADME, organism-based; settings: in vivo
[12] = Half life in dog, iv; type: ADME, organism-based, Canis lupus familiaris; settings: in vivo
[13] = Volume of distribution in dog; type: ADME, organism-based, Canis lupus familiaris; settings: in vivo, read-out: Vdss
[14] = Plasma clearance in dog; type: ADME, organism-based, Canis lupus familiaris
[15] = Oral bioavailability in dog; type: ADME, organism-based, Canis lupus familiaris; settings: in vivo

T1 sequence (Q16539 whole entry): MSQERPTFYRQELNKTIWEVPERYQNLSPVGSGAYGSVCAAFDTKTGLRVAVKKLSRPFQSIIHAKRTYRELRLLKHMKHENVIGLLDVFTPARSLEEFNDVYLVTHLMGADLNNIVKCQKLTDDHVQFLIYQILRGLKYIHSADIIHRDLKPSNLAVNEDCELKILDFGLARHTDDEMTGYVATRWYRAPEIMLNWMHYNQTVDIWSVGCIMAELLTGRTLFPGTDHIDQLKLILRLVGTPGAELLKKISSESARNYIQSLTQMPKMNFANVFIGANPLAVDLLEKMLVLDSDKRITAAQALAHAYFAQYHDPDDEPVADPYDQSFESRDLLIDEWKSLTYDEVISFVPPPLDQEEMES

Row | Compound | clearance [1] [mL/min/kg] | bioavailability [2] [%] | half-life [3] [h] | Vd [4] [L/kg] | bioavailability [5] [%] | clearance [6] [mL/min/kg] | pIC50 [7] | pIC50 [8] | pIC50 [9] | Vd [10] [L/kg] | half-life [11] [h] | half-life [12] [h] | Vd [13] [L/kg] | clearance [14] [mL/min/kg] | bioavailability [15] [%]
1 | CC(C)(C)N1CCC(c2cc3c(ccc(=O)n3-c3c(Cl)cccc3Cl)c(-c3ccc(F)cc3Cl)n2)CC1 | 39.6 | 67.3 | 5.32 | 22.1 | 33 | 47.5 | 9.42 | 8.80 | 8.28 | 11.4 | 3.69 | – | – | – | –
2 | COC(=O)C(C)N1CCC(c2cc(-c3ccc(F)cc3Cl)c3ccc(=O)n(-c4c(Cl)cccc4Cl)c3c2)CC1 (stereo not given) | – | – | – | – | – | – | 8.09 | 8.89 | 7.55 | – | – | – | – | – | –
3 | CC(C)(C)N1CCC(Oc2cc(-c3ccc(F)cc3F)c3ccc(=O)n(-c4c(Cl)cccc4Cl)c3c2)CC1 | – | – | – | – | – | – | 8.73 | 9.11 | – | – | – | – | – | – | –
4 | CC(C)(C)N1CCC(c2cc(-c3ccc(F)cc3Cl)c3ccc(=O)n(-c4c(F)cccc4F)c3c2)CC1 | 18.5 | 57 | 9.55 | 28.6 | 31.5 | 35.1 | 9.52 | 9.38 | 9.00 | 3.77 | 9.96 | – | – | – | –
5 | C[C@@H](C(=O)O)N1CCC(c2cc(-c3ccc(F)cc3Cl)c3ccc(=O)n(-c4c(Cl)cccc4Cl)c3c2)CC1 | 59 | 0.11 | – | – | – | – | 8.89 | 8.49 | 7.55 | 0.7 | 0.44 | – | – | – | –
6 | CC(C)(C)N1CC=C(c2cc(-c3ccc(F)cc3Cl)c3ccc(=O)n(-c4c(Cl)cccc4Cl)c3c2)CC1 | – | – | – | – | – | – | 8.94 | 9.13 | 7.29 | – | – | – | – | – | –
7 | CC(C)(C)N1CCC(c2cc3c(ccc(=O)n3-c3c(Cl)cccc3Cl)c(-c3ccc(F)cc3F)n2)CC1 | 32.3 | 62 | 6.5 | 21.6 | 23 | 41.5 | 9.29 | 9.16 | 8.28 | 24 | 9.05 | 15.5 | 23.8 | 20.5 | 99.3
8 | COC(=O)C(C)(C)N1CCC(c2cc(-c3ccc(F)cc3Cl)c3ccc(=O)n(-c4c(Cl)cccc4Cl)c3c2)CC1 | – | – | – | – | – | – | 8.17 | 8.59 | 6.89 | – | – | – | – | – | –
9 | CC(C)(C)N1CCC(c2cc(-c3ccc(F)cc3F)c3ccc(=O)n(-c4c(Cl)cccc4Cl)c3c2)CC1 | 11.9 | 69.3 | 9.7 | 26.2 | 56.5 | 29.2 | 9.85 | 8.77 | 8.62 | 3.82 | 4.13 | 19.8 | 8.99 | 5.5 | 36.2
10 | CC(C)(C)N1CCC(c2cc(-c3ccccc3Cl)c3ccc(=O)n(-c4c(Cl)cccc4Cl)c3c2)CC1 | – | – | – | – | – | – | 10.00 | 9.00 | 8.19 | – | – | – | – | – | –
11 | O=c1ccc2c(-c3ccc(F)cc3Cl)cc(C3CC4CCC(C3)N4)cc2n1-c1c(Cl)cccc1Cl (stereo not given) | 37 | 13 | – | – | – | – | 9.35 | 9.05 | 7.84 | 6.2 | 2.56 | – | – | – | –
12 | CC(C)(C)N1CCC(Oc2cc(-c3ccccc3Cl)c3ccc(=O)n(-c4c(Cl)cccc4Cl)c3c2)CC1 | 34.1 | 32.3 | – | – | – | – | 8.80 | 8.74 | 7.89 | 6.17 | 2.33 | – | – | – | –
13 | C[C@H](C(=O)O)N1CCC(c2cc(-c3ccc(F)cc3Cl)c3ccc(=O)n(-c4c(Cl)cccc4Cl)c3c2)CC1 | – | – | – | – | – | – | 8.49 | 8.42 | 7.60 | – | – | – | – | – | –
14 | CC(C)(C(=O)O)N1CCC(c2cc(-c3ccc(F)cc3Cl)c3ccc(=O)n(-c4c(Cl)cccc4Cl)c3c2)CC1 | – | – | – | – | – | – | 9.08 | 8.43 | 7.10 | – | – | – | – | – | –
15 | CN1C2CCC1CC(c1cc(-c3ccc(F)cc3Cl)c3ccc(=O)n(-c4c(Cl)cccc4Cl)c3c1)C2 (stereo not given) | 27 | 30 | – | – | – | – | 9.21 | 9.09 | 8.11 | 6.87 | 3.12 | – | – | – | –
16 | CC(C)(C)N1CCC(Oc2cc(-c3ccc(F)cc3F)c3ccc(=O)n(-c4c(F)cccc4F)c3c2)CC1 | – | – | – | – | – | – | 7.98 | 8.66 | 7.74 | – | – | – | – | – | –
17 | CC1(C)C=C(c2cc(-c3ccc(F)cc3Cl)c3ccc(=O)n(-c4c(Cl)cccc4Cl)c3c2)CC(C)(C)N1 | 30.1 | 36 | – | – | – | – | 9.59 | 8.48 | 7.62 | 7.32 | 3.17 | – | – | – | –
18 | CC(C)N1C2CCC1CC(c1cc(-c3ccc(F)cc3Cl)c3ccc(=O)n(-c4c(Cl)cccc4Cl)c3c1)C2 (stereo not given) | 18 | 44 | – | – | – | – | 9.29 | 9.00 | 8.07 | 5.23 | 3.36 | – | – | – | –
19 | CC(C)(C)N1CCC(Oc2cc(-c3ccc(F)cc3Cl)c3ccc(=O)n(-c4c(Cl)cccc4Cl)c3c2)CC1 | – | – | – | – | – | – | 8.15 | 8.62 | 7.79 | – | – | – | – | – | –
20 | CC(C)(C)N1CCC(c2cc(-c3ccc(F)cc3Cl)c3ccc(=O)n(-c4c(Cl)cccc4Cl)c3c2)CC1 | 14 | 47.7 | 13.6 | 52.8 | 49 | 52.9 | 9.51 | 9.57 | 8.59 | 3.84 | 3.5 | 5.59 | 23.8 | 26.8 | 83
21 | CC(C)(C)N1CCC(c2cc3c(ccc(=O)n3-c3c(Cl)cccc3Cl)c(-c3ccccc3Cl)n2)CC1 | 25 | 66 | – | – | – | – | 8.85 | – | 8.17 | 10.1 | 5.1 | 5.42 | 15.1 | 37.6 | 9.35
